Laboratory results reported in patent EP0045161A1, “Amides of 4-oxo-5-amidohexanoic acid derivatives” (IMPERIAL CHEMICAL INDUSTRIES PLC, priority 1980, dated 1982).

Molecular target: angiotensin converting enzyme (Homo sapiens, UniProt P12821)
Test: inhibition of angiotensin converting enzyme (cleavage of angiotensin I or a related synthetic peptide by ACE)
Assay type: biochemical
Description: ACE is the enzyme which converts angiotensin I to angiotensin II.

Sequence of angiotensin converting enzyme (P12821 30-1306, species assumed): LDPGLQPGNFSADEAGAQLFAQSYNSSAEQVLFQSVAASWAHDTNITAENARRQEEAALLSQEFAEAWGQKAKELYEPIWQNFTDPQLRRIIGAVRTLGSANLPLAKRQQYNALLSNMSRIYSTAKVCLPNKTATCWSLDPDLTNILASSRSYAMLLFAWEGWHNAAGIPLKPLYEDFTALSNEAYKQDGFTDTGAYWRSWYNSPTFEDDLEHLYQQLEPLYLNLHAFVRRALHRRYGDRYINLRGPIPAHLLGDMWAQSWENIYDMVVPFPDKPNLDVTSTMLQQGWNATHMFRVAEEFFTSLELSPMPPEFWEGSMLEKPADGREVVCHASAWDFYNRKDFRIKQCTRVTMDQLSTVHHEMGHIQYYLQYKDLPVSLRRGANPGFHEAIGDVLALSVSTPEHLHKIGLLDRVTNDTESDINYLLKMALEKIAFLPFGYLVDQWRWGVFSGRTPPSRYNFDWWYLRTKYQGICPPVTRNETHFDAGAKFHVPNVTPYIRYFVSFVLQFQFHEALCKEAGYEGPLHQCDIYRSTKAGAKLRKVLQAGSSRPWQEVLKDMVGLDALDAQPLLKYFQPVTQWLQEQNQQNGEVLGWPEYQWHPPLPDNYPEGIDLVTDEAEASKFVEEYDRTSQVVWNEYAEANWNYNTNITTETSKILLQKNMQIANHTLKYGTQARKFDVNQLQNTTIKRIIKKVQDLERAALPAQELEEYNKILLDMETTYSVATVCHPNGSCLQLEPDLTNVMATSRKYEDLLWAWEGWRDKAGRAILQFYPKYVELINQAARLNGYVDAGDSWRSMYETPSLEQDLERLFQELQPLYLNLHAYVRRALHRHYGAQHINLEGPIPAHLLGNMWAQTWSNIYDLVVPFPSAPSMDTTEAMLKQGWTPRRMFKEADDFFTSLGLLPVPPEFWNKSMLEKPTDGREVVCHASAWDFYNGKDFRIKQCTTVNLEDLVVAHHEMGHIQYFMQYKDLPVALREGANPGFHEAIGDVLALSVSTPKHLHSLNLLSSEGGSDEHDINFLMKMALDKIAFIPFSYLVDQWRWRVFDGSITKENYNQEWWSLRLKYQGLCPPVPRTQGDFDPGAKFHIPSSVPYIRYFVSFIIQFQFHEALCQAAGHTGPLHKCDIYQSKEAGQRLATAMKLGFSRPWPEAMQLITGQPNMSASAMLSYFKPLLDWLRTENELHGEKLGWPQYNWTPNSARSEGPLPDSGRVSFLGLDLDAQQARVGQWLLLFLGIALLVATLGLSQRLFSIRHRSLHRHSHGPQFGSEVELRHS

Structure (SMILES)	times more active as an inhibitor or angiotensin converting enzyme (relative to the less polar isomer (Compound No. 6D), isomers at the 5-carbon atom of the hexanoyl chain)	times more active as an inhibitor of angiotensin converting enzyme (relative to the more polar isomer (Compound No. 6B), isomers at the 2-carbon atom of the hexanoyl chain)
CC(CC(=O)C(Cc1ccccc1)NC(=O)c1ccccc1)C(=O)N1CCC[C@H]1C(=O)OC(C)(C)C (single isomer, unassigned) [Compound No. 6C]	100 times	–
CC(CC(=O)C(Cc1ccccc1)NC(=O)c1ccccc1)C(=O)N1CCC[C@H]1C(=O)OC(C)(C)C (single isomer, unassigned) [Compound No. 6A]	–	10 times
